Test results: patent US6380262B1, “5-membered ring compounds” (Takara Shuzo Co., Ltd., priority 1998, dated 2002)
Like-named read-outs stand apart in the source and are kept apart here. Numbered stars: 1 amine (or outer) side, 2 acyl side, 3 side chain; on linkers, the order of the positions; unused ones are H or OH. Bridge positions count the residues as written; N and C are the ends. Square brackets hold non-standard residues; d marks the D form. Peptide text beside a SMILES is read from it. I, II: the chains in the order shown. Actinocin(9to1) = Cc1c2oc3c(C)ccc(C(=O)[*:1])c3nc-2c(C(=O)[*:2])c(N)c1=O; NMeV = CN[C@H](C(=O)O)C(C)C; Sar = CNCC(=O)O

Columns and labels:
[1] = single oral administration to a rat (death); assay type: in vivo; conditions: single dosage of 1000 mg/kg
Protocol: No toxicity is observed when a physiologically effective amount of the compound of the present invention or an optical isomer thereof, or a salt thereof is administered.

[2] = test system: HL-60 (ATCC CCL-240) cells; assay: antiproliferation activity against tumor cells and apoptosis induction, MTT measurement system and optical microscope; assay type: cell-based, human; conditions: for induction of apoptosis (apoptosis corpuscles under an optical microscope): HL-60, 96-well plate culture
Protocol: (1) 100 μl of a suspension containing HL-60 (ATCC CCL-240) cells in RPMI-1640 medium (Nippon Suisan Kaisha) containing 10% fetal calf serum (Gibco) which had been treated at 56° C. for 30 minutes at a concentration of 5×10^4 cells/ml was dispensed into each well of a 96-well microtiter plate. 10 μl of one of 2-fold serial dilutions with water of 8.3 mM hexanoyl GM solution in 25 mM Tris-HCl buffer was added to the well of the plate. The plate was incubated at 37° C. for 48 hours in the presence of 5% CO2. After the cells were examined under an optical microscope, 10 μl of 5 mg/ml 3-(4,5-dimethylthiazol-2-yl)-2,5-diphenyltetrazolium bromide (MTT; Sigma) solution in phosphate buffered saline was added to the well. The plate was incubated for additional 4 hours. 100 μl of 2-propanol containing 0.04 N HCl was added to the well, the mixture was stirred, and the absorbance at 590 nm was measured.
(2) 10 μl of one of 2-fold serial dilutions with 70% aqueous ethanol solution of 19 mM di-t-butyl GD solution in 70% aqueous ethanol solution was added to each well of a 96-well microtiter plate and air-dried. 100 μl of HL-60 suspension was then dispensed as described above. An apoptosis-inducing activity and an antiproliferation activity against tumor cells were examined using a measurement system using MTT.

HL-60 cells [3] = assay: viability by Trypan Blue staining (Viability50); assay type: cell-based; conditions: Homo sapiens, read-out: Viability50 (concentration that results in a viability of 50%)
Protocol: (§1) (3) HL-60 cells were cultured at 37° C. in RPMI 1640 medium (Bio Whittaker) containing 10% fetal calf serum (JRH) which had been treated at 56° C. for 30 minutes and suspended in RPMI 1640 medium at a concentration of 2.5×10^5 cells/5 ml.
(§2) 10 μl of one of appropriate dilutions of the hexanoyl GM solutions in 20 mM Tris-HCl buffer or the di-t-butyl GD solution in 70% aqueous ethanol solution was added to 5 ml of the suspension. The mixtures were incubated at 37° C. for 24 hours in the presence of 5% CO2. 10 μl of aqueous actinomycin D (Sigma) solution (0.5 mg/ml), which is known as a reagent that induces apoptosis, was used in place of the sample and the mixture was incubated under the same conditions for confirmation.
Furthermore, a portion of the cells cultured for 24 hours as described above was stained with 0.4% Trypan Blue and examined under an optical microscope. The number of viable cells which were not stained and the number of dead cells which were stained blue were counted. The concentration of each of the samples that results in a viability of 50% (Viability50 μM) was determined. As a result, Viability50 for hexanoyl GM was 9.22 μM and that for di-t-butyl GD was 46.3 μM.

topoisomerase II = molecular target: T1, topoisomerase II (Homo sapiens, UniProt P11388); assay: topoisomerase II inhibition, pBR322 DNA relaxation on agarose gel; assay type: biochemical
T1 construct: purchased TopoGEN
T1 sequence (P11388 whole entry): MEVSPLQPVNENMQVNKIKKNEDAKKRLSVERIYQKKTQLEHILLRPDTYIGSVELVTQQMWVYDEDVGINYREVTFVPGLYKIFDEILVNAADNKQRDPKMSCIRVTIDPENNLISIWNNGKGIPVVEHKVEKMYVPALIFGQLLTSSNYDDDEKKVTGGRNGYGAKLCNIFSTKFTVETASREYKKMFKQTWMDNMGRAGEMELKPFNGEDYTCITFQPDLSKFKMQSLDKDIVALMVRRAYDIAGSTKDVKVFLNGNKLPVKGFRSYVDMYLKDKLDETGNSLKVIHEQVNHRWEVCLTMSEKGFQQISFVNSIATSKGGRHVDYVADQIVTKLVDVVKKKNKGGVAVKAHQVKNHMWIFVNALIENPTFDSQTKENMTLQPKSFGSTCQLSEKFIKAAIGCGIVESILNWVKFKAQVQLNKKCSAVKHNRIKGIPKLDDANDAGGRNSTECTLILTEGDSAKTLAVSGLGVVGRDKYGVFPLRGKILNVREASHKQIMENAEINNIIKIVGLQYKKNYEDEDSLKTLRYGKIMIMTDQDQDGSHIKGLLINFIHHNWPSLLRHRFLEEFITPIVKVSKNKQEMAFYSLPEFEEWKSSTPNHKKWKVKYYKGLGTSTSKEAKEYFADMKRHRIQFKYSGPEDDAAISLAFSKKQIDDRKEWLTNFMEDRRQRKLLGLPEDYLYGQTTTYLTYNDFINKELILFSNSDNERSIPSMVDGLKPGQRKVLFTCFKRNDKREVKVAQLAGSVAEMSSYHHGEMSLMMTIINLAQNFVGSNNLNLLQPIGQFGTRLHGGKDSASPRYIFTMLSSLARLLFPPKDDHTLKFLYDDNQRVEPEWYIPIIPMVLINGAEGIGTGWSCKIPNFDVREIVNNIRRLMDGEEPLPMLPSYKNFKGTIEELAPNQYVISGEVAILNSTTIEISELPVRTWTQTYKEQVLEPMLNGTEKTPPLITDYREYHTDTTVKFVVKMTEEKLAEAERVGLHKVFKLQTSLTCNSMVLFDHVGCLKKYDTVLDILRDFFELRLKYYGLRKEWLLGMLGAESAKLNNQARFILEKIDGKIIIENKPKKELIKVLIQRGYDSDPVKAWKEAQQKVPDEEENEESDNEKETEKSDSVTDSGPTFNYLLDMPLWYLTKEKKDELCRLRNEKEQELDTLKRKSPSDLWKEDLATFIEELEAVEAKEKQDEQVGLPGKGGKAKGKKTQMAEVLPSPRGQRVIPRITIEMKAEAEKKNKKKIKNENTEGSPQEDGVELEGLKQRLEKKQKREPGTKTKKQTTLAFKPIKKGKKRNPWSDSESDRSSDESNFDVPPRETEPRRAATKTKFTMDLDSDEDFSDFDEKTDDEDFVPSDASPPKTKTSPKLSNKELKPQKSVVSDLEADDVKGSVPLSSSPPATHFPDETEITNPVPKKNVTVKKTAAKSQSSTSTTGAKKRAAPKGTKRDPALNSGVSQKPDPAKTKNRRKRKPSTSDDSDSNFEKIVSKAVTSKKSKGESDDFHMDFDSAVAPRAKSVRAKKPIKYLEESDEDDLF
Protocol: (§3) (1) 2 μl of topoisomerase II (TopoGEN; 2 units/μl), 2 μl of 10-fold concentrated buffer [0.5 M Tris-HCl (pH 8.0), 1.2 M KCl, 0.1 M MgCl2, 5 mM adenosine triphosphate, 5 mM dithiothreitol], 2 μl of 0.1% bovine serum albumin (Takara Shuzo), 11 μl of distilled water and 2 μl of distilled water (control) or 2 μl of one solutions of hexanoyl GM adjusted to varying concentrations with water were mixed together. 1 μl of 0.25 μg/μl pBR322 DNA (Takara Shuzo) was added thereto. The resulting mixture was reacted at 37° C. After reacting for 30 minutes, 2 μl of an aqueous solution containing 1% sodium dodecyl sulfate, 50% glycerol and 0.02% Bromophenol Blue was added thereto to stop the reaction.
(§4) 20 μl of the reaction mixture was applied to 1% agarose gel prepared using agarose L03 (Takara Shuzo) and TAE buffer [40 mM Tris, 5 mM sodium acetate, 1 mM ethylenediaminetetraacetic acid disodium salt; adjusted to pH 7.8 using acetic acid] and electrophoresed in TAE buffer. After electrophoresis, the gel was soaked in a 1 μg/ml aqueous ethidium bromide solution. The gel was exposed to ultraviolet rays to visualize the electophoretic pattern of DNA.

topoisomerase I = molecular target: T2, topoisomerase I (Homo sapiens, UniProt P11387); assay: topoisomerase I inhibition, pBR322 DNA relaxation on agarose gel; assay type: biochemical; conditions: topoisomerase I (TopoGEN), 37° C., 30 minutes
T2 construct: purchased TopoGEN
T2 sequence (P11387 1-765): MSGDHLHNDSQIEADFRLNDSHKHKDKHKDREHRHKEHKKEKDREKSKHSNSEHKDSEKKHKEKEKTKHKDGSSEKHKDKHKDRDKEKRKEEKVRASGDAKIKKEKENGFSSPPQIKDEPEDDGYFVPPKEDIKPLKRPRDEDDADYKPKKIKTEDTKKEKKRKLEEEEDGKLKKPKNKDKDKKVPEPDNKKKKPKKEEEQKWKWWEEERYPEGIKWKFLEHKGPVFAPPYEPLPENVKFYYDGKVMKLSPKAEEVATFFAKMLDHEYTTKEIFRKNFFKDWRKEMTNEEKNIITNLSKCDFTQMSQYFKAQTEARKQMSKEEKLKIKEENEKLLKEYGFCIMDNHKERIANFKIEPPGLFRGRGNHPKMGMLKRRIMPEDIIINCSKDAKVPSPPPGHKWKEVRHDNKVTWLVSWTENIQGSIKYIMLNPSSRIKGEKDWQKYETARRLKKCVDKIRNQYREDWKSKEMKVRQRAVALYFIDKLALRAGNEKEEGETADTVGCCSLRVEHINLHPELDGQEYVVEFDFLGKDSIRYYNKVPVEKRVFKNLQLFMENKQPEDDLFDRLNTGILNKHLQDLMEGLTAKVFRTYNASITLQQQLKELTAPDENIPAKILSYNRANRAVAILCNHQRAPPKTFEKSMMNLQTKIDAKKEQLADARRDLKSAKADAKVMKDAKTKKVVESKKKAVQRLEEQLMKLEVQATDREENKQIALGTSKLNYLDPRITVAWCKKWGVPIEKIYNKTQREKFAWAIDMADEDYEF
Protocol: as §3
as §4, with “The gel was exposed to ultraviolet rays to visualize the electophoretic pattern of DNA.” left out
(2) The activity of inhibiting topoisomerase I of hexanoyl GM was determined as described in Example 3-(1) except that topoisomerase I (TopoGEN; 0.01 unit/μl) was used in place of topoisomerase II and a solution containing 100 mM Tris-HCl (pH 7.9), 10 mM EDTA, 1 mM spermidine and 50% glycerol was used as 10-fold concentrated buffer.

[4] = single oral administration to a mouse (death); assay type: in vivo; conditions: single dosage of 100 mg/kg
[5] = test system: human influenza virus A1/FM/1/47 (ATCC VR-97); assay: therapeutic effect in mice infected with influenza virus; assay type: in vivo, BALB/c mice; conditions: control 4 out of 11 died
Protocol: (24) Therapeutic effects of cyclopentenone and 2-hydroxy-4-glutathion-S-yl-2-cyclopenten-1-one were examined by conducting experiments in which mice were infected with influenza virus.
Each of 4 weeks old female BALB/c mice was intranasally infected with 1×10^4 FFU of human influenza virus A1/FM/1/47 (ATCC VR-97) which had been propagated in a hen's egg.
Immediately after the infection with virus, single dose of 1 mg/kg of cyclopentenone, or 3 mg/kg or 30 mg/kg of 2-hydroxy-4-glutathion-S-yl-2-cyclopenten-1-one was intraperitoneally administered to the mouse infected with influenza virus.
Phosphate buffered saline was administered to control mice.
As a result, 4 out of 11 mice in the control group died by day 16. On the other hand, the numbers of dead mice were only 1 out of 11, 1 out of 11 and 1 out of 10 for the groups administered with 1 mg/kg of cyclopentenone, 3 mg/kg of 2-hydroxy-4-glutathion-S-yl-2-cyclopenten-1-one and 30 mg/kg of 2-hydroxy-4-glutathion-S-yl-2-cyclopenten-1-one, respectively.

HL-60 cells [6] = assay: measurement of apoptotic cells using FACScan; assay type: cell-based, human; conditions: HL-60, 24 hours; actinomycin D 10 μl of 0.5 mg/ml in 5 ml
Protocol: as §1, §2
(§5) Measurement of apoptotic cells using FACScan as described in Saibo Kogaku, Bessatsu (Cell Technology, Suppl.) Jikken Protocol Series: Apoptosis Jikken Protocol (Experimental Protocol Series: Experimental Protocols for Apoptosis) (Shujun-sha) pp. 129-130 and analysis of DNA fragmentation as described in Bio Manual UP Series: Saishin Apoptosis Jikken-ho (Bio Manual UP Series: Current Experimental Methods for Apoptosis) (Yodo-sha) pp. 61-63 were carried out using cells cultured in the same manner as that described above.

HL-60 cells [7] = assay: analysis of DNA fragmentation; assay type: cell-based, human; conditions: HL-60, 24 hours; actinomycin D 10 μl of 0.5 mg/ml in 5 ml
Protocol: as §1, §2, §5

CCCCCC(=O)OC1=CC(SC[C@H](NC(=O)CC[C@H](N)C(=O)O)C(=O)NCC(=O)O)CC1=O (stereo partly drawn) [hexanoyl GM, 2-hexanoyloxy-4-glutathion-S-yl-2-cyclopenten-1-one]
death after single oral administration [1]: no death was observed
induction of apoptosis (apoptosis corpuscles under an optical microscope) [2]: apoptosis corpuscles were observed
final concentration down to which an antiproliferation activity against tumor cells was clearly exhibited ([2]; HL-60, 48 hours, MTT, 2-fold serial dilutions of 8.3 mM solution): ≥ 6.25 pm
IC50 (HL-60 cells [3]; HL-60, 24 hours, 0.4% Trypan Blue): 9.22 µM
selectivity of inhibition, topoisomerase II as compared with topoisomerase I (topoisomerase II): selective inhibitory activity on topoisomerase II
concentration at which change of DNA from superhelical type to relaxed type was partially or completely inhibited (topoisomerase II; topoisomerase II (TopoGEN), pBR322 DNA, 37° C., 30 minutes): ≥ 100 µM
concentration at which change of DNA from superhelical type to relaxed type was partially inhibited (topoisomerase I): ≥ 1000 µM

O=C1C=CC(O)C1O (stereo not drawn) [cyclopentenone, 4,5-dihydroxy-2-cyclopenten-1-one]
death after single oral administration [4]: No death was observed
number of dead mice by day 16 ([5]; 1 mg/kg single intraperitoneal dose immediately after infection): 1 out of 11

Cc1c2oc3c(C)ccc(C(=O)N[C@@H]4C(=O)N[C@H](C(C)C)C(=O)N5CCC[C@H]5C(=O)N(C)CC(=O)N(C)[C@@H](C(C)C)C(=O)O[C@@H]4C)c3nc-2c(C(=O)N[C@@H]2C(=O)N[C@H](C(C)C)C(=O)N3CCC[C@H]3C(=O)N(C)CC(=O)N(C)[C@@H](C(C)C)C(=O)O[C@@H]2C)c(N)c1=O [actinomycin D] (I: T[dV]P[Sar][NMeV] / II: T[dV]P[Sar][NMeV]; ester I:1-I:C, II:1-II:C; linker I:N-II:N via Actinocin(9to1))
apoptotic cells (FACScan) (HL-60 cells [6]): observed
DNA fragmentation (HL-60 cells [7]): observed

CC(C)(C)OC1C(=O)CC(SC[C@H](NC(=O)CC[C@H](N)C(=O)O)C(=O)NCC(=O)O)C1OC(C)(C)C (stereo partly drawn) [di-t-butyl GD, 2,3-di-t-butoxy-4-glutathion-S-yl-1-cyclopentanone]
death after single oral administration [1]: no death was observed
induction of apoptosis (apoptosis corpuscles under an optical microscope) [2]: apoptosis corpuscles were observed
final concentration down to which an antiproliferation activity against tumor cells was clearly exhibited ([2]; HL-60, MTT, 2-fold serial dilutions of 19 mM solution, air-dried in well): ≥ 34 µM
IC50 (HL-60 cells [3]; HL-60, 24 h): 46.3 µM

N[C@@H](CCC(=O)N[C@@H](CSC1C=C(O)C(=O)C1)C(=O)NCC(=O)O)C(=O)O (stereo partly drawn) [2-hydroxy-4-glutathion-S-yl-2-cyclopenten-1-one]
death after single oral administration [1]: no death was observed
number of dead mice by day 16 ([5]; 3 mg/kg single intraperitoneal dose immediately after infection): 1 out of 11
number of dead mice by day 16 ([5]; 30 mg/kg single intraperitoneal dose immediately after infection): 1 out of 10
